Measured values: publication PMC5711939, “The rumen microbiome: an underexplored resource for novel antimicrobial discovery” (NPJ Biofilms and Microbiomes, 2017)
Ends that are not written are not given here.

Key:
in vitro = details: 25% serum
Procedure: The stability of Lynronne-1, Lynronne-2 and Lynronne-3 in the presence of serum was investigated by monitoring the concentrations of the remaining soluble peptides by reverse phase high-performance liquid chromatography (RP-HPLC), as described previously by Nguyen and colleagues.[26] Degradation of Lynronne-1, Lynronne-2 and Lynronne-3 in the presence of trypsin was adapted from a previously described method.[46] Briefly, trypsin (5 µl of 0.5 ng/ml) and 37.5 µl trypsin activation buffer (50 mM Tris, 2 mM CaCl2, pH 7.8-8) was added to 7.5 µl of 5 mg/ml Lynronne-1, Lynronne-2 and Lynronne-3 and incubated at 37 °C for different time points (0, 1, 3, and 24 h). An aliquot from each reaction mixture at 0 h was prepared to allow matrix-assisted laser desorption/ionization time-of-flight (MALDI-TOF) mass spectrometric verification of the synthetic peptides prior to incubation. Trypsin action buffer (5 µl) and peptides without trypsin was used as negative control. After the various incubation times, the reaction mixtures were acidified by addition of an equal volume (50 µl) of 10% (v/v) trifluroacetic acid (TFA) to stop further enzyme activity. Lynronne-1, Lynronne-2 and Lynronne-3 degradation products were evaporated to dryness and reconstituted in acetonitrile/water/TFA (40/59.5/0.5%, v/v/v). Samples (1 µl) were carefully placed onto a stainless steel (MALDI) target, covered with 1 µl of matrix (53 mM a-cyano-4-hydroxycinnamic acid in acetonitrile/water/TFA, 70/29.97/0.03%, v/v/v) solution before analysis by mass spectrometry.

HUVEC and HepG2 cells = details: for total growth inhibition (TGI): HUVEC and HepG2 cells (cell line not given)
Procedure: Cytotoxic activity of the identified peptides was determined using HUVEC and HEPG2 cells as described previously.[41],[42] […] Significant responses were defined when observed cell growth was ≤50% and tube length was ≤70% using the proliferation and tube formation assays respectively. Permeabilization of eukaryotic membrane by Lynronne-1, Lynronne-2 and Lynronne-3 was also investigated using HepG2 cells as described previously.[43]

C. coli = system: C. coli
Procedure: (§1) Peptides dissolved in sterile distilled water and comparator antibiotics dissolved in the appropriate solvents[38] were added to sterile U-bottom polypropylene 96-well microplates at desired concentrations.

MRSA strains = details: sub-MIC levels, 25 days, daily passage
Procedure: To evaluate if populations of AMP-resistant bacteria could be selected, cultures were continuously exposed to Lynronne-1, Lynronne-2 and Lynronne-3 for a duration of 25 days, as previously described.[40] Briefly, broth microdilution susceptibility testing was performed using a standard doubling-dilution series of Lynronne-1, Lynronne-2 and Lynronne-3 concentrations on day 1.

USA300 MRSA (BAA-1717) = assay: Murine model of MRSA wound infection; format: in vivo, Staphylococcus aureus; details: ICR mice, topical 2% once daily for 3 days, five mice/group
Procedure: The efficacy of Lynronne-1, Lynronne-2 and Lynronne-3 for treating a wound infection caused by USA300 community-associated methicillin resistant S. aureus (MRSA, strain BAA-1717) was evaluated using a murine wound model with ICR mice.[24] A sharp punch (ID 12 mm) was used to create excisional skin wounds in groups of five female ICR mice (5–6 weeks old). The mice were inoculated topically on the wound area (5 µl per wound) with 1.05 × 10^5 CFU/mouse of strain BAA-1717 suspended in 5 µl PBS. Peptides (2 or 10% w/v) in PBS (pH 7.4), control (PBS), and mupirocin 2% (Dermasafe® ointment) were topically applied (20 µl/mouse) directly to wounds 2 h post infection and once daily thereafter for three consecutive days. Test animals were sacrificed and the wound tissue was excised for enumeration of bacteria cells (CFU/wound). A two-log reduction in the bacterial count (≥99% reduction) relative to the control group indicates significant activity. Statistical significance (P < 0.05) was performed with one-way analysis of variance (ANOVA) followed by use of the Dunnett’s method.

[1] = system: List. monocytogenes NCTC 11994; assay: microbe, parasite or virus in culture; details: NCTC 11994
Procedure: as §1

S. aureus = assay: microbe, parasite or virus in culture; details: for MIC: strain RN4220, Sensitive, cation adjusted MHB, 18–24 h
Procedure: as §1

Sal. typhimurium SL1344 = assay: microbe, parasite or virus in culture
Procedure: as §1

Ent. faecalis JH2-2 = assay: microbe, parasite or virus in culture
Procedure: as §1

P. aeruginosa H1001 = assay: SPOT peptide library screen (luminescence); format: cell-based, Pseudomonas aeruginosa; design: unit not given here; details: 75% reduction of luminescence vs untreated controls; active IC75≤0.25, semi-active 0.25<IC75≤0.50, inactive IC75>0.5
Excerpt: (§2) The peptides in the created peptide library were synthesized based on the SPOT technique and pure peptides (≥95% purity) were synthesized on resin using solid phase Fmoc peptide chemistry.[16] The 135 peptides in the peptide library were screened for antimicrobial activity using both luminescent (Pseudomonas aeruginosa strain H1001)[34] and non-luminescent (epidemic methicillin resistant S. aureus EMRSA-15, Sal. typhimurium and E. coli K12) bacterial strains. Activity against non-luminescent bacteria strains was assessed by fluorescence readings (excitation/emission spectra of 560/590 nm) after the addition of resazurin dye (100 µm final concentration). The results from the screen were analysed using the MATLAB extension Gait-CAD as previously described.[35] Concentration values with a 75% reduction of luminescence or fluorescence (IC75) in relation to untreated controls were computed.

EMRSA-15 = assay: SPOT peptide library screen (resazurin fluorescence); format: cell-based, Staphylococcus aureus; design: unit not given here; details: 75% reduction of fluorescence vs untreated controls; active IC75≤0.25, semi-active 0.25<IC75≤0.50, inactive IC75>0.5
Excerpt: as §2

Sal. typhimurium = assay: as above; format: cell-based, Salmonella enterica serovar Typhimurium; design: unit not given here; details: 75% reduction of fluorescence vs untreated controls; active IC75≤0.25, semi-active 0.25<IC75≤0.50, inactive IC75>0.5
Excerpt: as §2

E. coli K12 = assay: MIC, broth microdilution; format: cell-based, Escherichia coli; details: strain K12; cation adjusted MHB, 18–24 h
Procedure: as §1

**Q.** With NRFTARFRRTPWRLCLQFRQ-NH2 [Lynronne-3] as the substance, how does the remaining at 2 h (in vitro) read?
**A.** ≥ 88%

**Q.** What about the remaining at 6 h (in vitro) of the same substance?
**A.** 34%

**Q.** What about the “total growth inhibition (TGI)” value (HUVEC and HepG2 cells) of the same substance?
**A.** 61.2 µg/mL

**Q.** And the MIC (C. coli)?
**A.** 128 µg/mL

**Q.** What about the “Resistance acquisition during serial passage” value (MRSA strains) of the same substance?
**A.** failed to produce mutants that were resistant

**Q.** What about the “Colony count relative to the control group treated with PBS” value (USA300 MRSA (BAA-1717)) of the same substance?
**A.** No significant decreases

**Q.** And the MIC [1]?
**A.** 32 µg/mL

**Q.** What about the “MIC range for methicillin-resistant S. aureus (MRSA) strains” value (S. aureus) of the same substance?
**A.** 32 to 128 µg/mL

**Q.** What about the MIC (S. aureus) of the same substance?
**A.** 32 µg/mL

**Q.** What about the MIC (Sal. typhimurium SL1344) of the same substance?
**A.** 64 µg/mL

**Q.** What about the MIC (Ent. faecalis JH2-2) of the same substance?
**A.** 64 µg/mL

**Q.** What about the “IC75 values indicating activity classes, P. aeruginosa H1001” value (P. aeruginosa H1001) of the same substance?
**A.** 0.54

**Q.** And the “IC75 values indicating activity classes, EMRSA-15” value (EMRSA-15)?
**A.** 0.65

**Q.** And the “IC75 values indicating activity classes, Sal. typhimurium” value (Sal. typhimurium)?
**A.** 0.41

**Q.** What about the MIC (E. coli K12) of the same substance?
**A.** 64 µg/mL

**Q.** With LPRRNRWSKIWKKVVTVFS-NH2 [Lynronne-1] as the substance, how does the remaining at 2 h (in vitro) read?
**A.** 48%

**Q.** And the remaining at 6 h (in vitro)?
**A.** 15%

**Q.** And the “total growth inhibition (TGI)” value (HUVEC and HepG2 cells)?
**A.** 67.1 µg/mL

**Q.** What about the MIC (C. coli) of the same substance?
**A.** 64 µg/mL

**Q.** What about the “Resistance acquisition during serial passage” value (MRSA strains) of the same substance?
**A.** failed to produce mutants that were resistant

**Q.** And the “Colony count relative to the control group treated with PBS” value (USA300 MRSA (BAA-1717))?
**A.** significant decrease

**Q.** And the MIC [1]?
**A.** 32 µg/mL

**Q.** And the “MIC range for methicillin-resistant S. aureus (MRSA) strains” value (S. aureus)?
**A.** 8 to 32 µg/mL

**Q.** And the MIC (S. aureus)?
**A.** 32 µg/mL

**Q.** And the MIC (Sal. typhimurium SL1344)?
**A.** 32 µg/mL

**Q.** And the MIC (Ent. faecalis JH2-2)?
**A.** 32 µg/mL

**Q.** What about the “IC75 values indicating activity classes, P. aeruginosa H1001” value (P. aeruginosa H1001) of the same substance?
**A.** 0.14

**Q.** What about the “IC75 values indicating activity classes, EMRSA-15” value (EMRSA-15) of the same substance?
**A.** 0.38

**Q.** And the “IC75 values indicating activity classes, Sal. typhimurium” value (Sal. typhimurium)?
**A.** 0.24

**Q.** What about the MIC (E. coli K12) of the same substance?
**A.** 32 µg/mL

**Q.** Which results are given for HLRRINKLLTRIGLYRHAFG-NH2 [Lynronne-2]?
**A.** remaining at 2 h (in vitro): ≥ 60%; remaining at 6 h (in vitro): 42%; Cytotoxic activity (HUVEC and HepG2 cells): no cytotoxic activity; MIC (C. coli): >128 µg/mL; Resistance acquisition during serial passage (MRSA strains): failed to produce mutants that were resistant; Colony count relative to the control group treated with PBS (USA300 MRSA (BAA-1717)): No significant decreases; MIC [1]: 32 µg/mL; MIC (S. aureus): 32 µg/mL; MIC (Sal. typhimurium SL1344): 32 µg/mL; MIC (Ent. faecalis JH2-2): 32 µg/mL; IC75 values indicating activity classes, P. aeruginosa H1001 (P. aeruginosa H1001): 0.14; IC75 values indicating activity classes, EMRSA-15 (EMRSA-15): 0.29; IC75 values indicating activity classes, Sal. typhimurium (Sal. typhimurium): 0.09; MIC (E. coli K12): 64 µg/mL
